Test results published in patent US12559496B2, “Imidazopyrimidines as modulators of IL-17” (Janssen Pharmaceutica NV, priority 2020, dated 2026).

Experiments:
[1] = biological target: IL-17A(FLAG-Tagged): IL-17RA(His-Tagged) (Homo sapiens, UniProt Q16552, K93Q); test: IL-17A(FLAG-Tagged): IL-17RA(His-Tagged) Binding Disruption Eu-HTRF Assay; settings: disruption of IL-17A/IL-17RA binding; simple average if tested more than once
Description: IL-17A(FLAG-Tagged): IL-17RA(His-Tagged) Binding Disruption Eu-HTRF Assay
An antibody directed against the FLAG tag of IL-17A (SEQ ID NO: 1) is labeled with the HTRF donor chromophore (Europium-cryptate). IL-17A is present as a dimer that is “locked into” this quaternary structure due to the formation of loop-spanning […] disulfide bridges. The construct of IL-17RA used in the assay excludes the […] portion of the receptor and is fused to a C-terminal 10×His tag (SEQ ID NO:2). An antibody directed against the His tag of the IL-17RA chimera is labeled with the HTRF acceptor chromophore (“D2”). The fluorescence-resonance energy transfer (FRET) depends on the vicinity of the donor chromophore to the acceptor, and interruption of the binding between the IL-17A and IL-17RA causes the reduction/loss of FRET. Therefore, this assay allows to evaluate the compound effect on the binding IL-17A and IL-17RA by monitoring the fluorescence intensity of donor vs acceptor. The assay is run as described below.
40 nL of 2-fold serial diluted compound solution for total 22 dilution points is added into each well of a 1536-well, white, low-volume, non-binding plate (Greiner #782904), then 2 μL of FLAG tagged IL-17A at 2× final concentration (2.5 nM) in solution of PBS+0.01% Triton-X100 is added to each well. The assay plate is briefly centrifuged then incubated for 1 h at rt. A mixed solution is prepared containing 2×5 nM 10HIS×IL-17RA, 2×2.5 nM Eu-anti-FLAG (CISBIO), 2×5 nM D2-anti-HIS (CISBIO) in PBS+0.01% Triton-X100+200 mM Potassium Fluoride (Sigma 60238) and 2 μL of mix is added to each well of the assay plate. The plate is briefly centrifuged then incubated for 2 h at rt. The HTRF intensities at the wavelength of donor (620 nm) and acceptor (665 nm) are measured using BMG Pherastar. The ratio between intensities at two wavelengths is calculated and plotted against the compound concentration and the data is fitted to a one-site competition model to yield IC50 of the compound.

[2] = tested on: IL-17A-induced G-CSF production in human normal keratinocytes (NHK); test: NHK Assay: IL-17A-induced G-CSF production in human normal keratinocytes; assay type: cell-based; settings: IL-17A 5 ng/mL, 24 h, 5% FBS, simple average if tested more than once
Procedure: IL-17A acts directly on keratinocytes through binding to dimeric receptor IL-17RA/RC and drives the production of a number of inflammatory mediators known to be elevated in psoriasis lesional tissue. IL-17A small molecule inhibitors that block the IL-17A to interact with IL-17R would inhibit the IL-17A signaling in its targeted cells such as keratinocytes. The compound functional activity is evaluated for its impact on IL-17A-induced G-CSF production in human normal keratinocytes (NHK).
Adult normal human keratinocytes are cultured in keratinocyte growth medium (Lonza) in a flask till reaching ˜ 90% confluence, then cells are transferred to a 384-well plate at density of 3000-4000 cell/well. Recombinant human IL-17A (Gibco PHC9174) is pre-incubated with titrated compound or DMSO for 1 h at rt then added to the cell culture plate. The final concentration of IL-17A is 5 ng/mL and DMSO is 0.2%, in the culture containing 5% FBS. Cells are cultured/treated for 24 h at 37° C. Supernatants are collected and G-CSF production is measured through HTRF technology using Human G-CSF Kit (CisBio). G-CSF concentration was extrapolated from the standard curve and IC50 is determined using GraphPad Prism. Cell viability is also evaluated using CellTiter-Glo kit (Promega) and effect of compound on cell viability is compared to DMSO control.

UniProt Q16552, sequence (Q16552 with tags, fused parts or gaps K93Q): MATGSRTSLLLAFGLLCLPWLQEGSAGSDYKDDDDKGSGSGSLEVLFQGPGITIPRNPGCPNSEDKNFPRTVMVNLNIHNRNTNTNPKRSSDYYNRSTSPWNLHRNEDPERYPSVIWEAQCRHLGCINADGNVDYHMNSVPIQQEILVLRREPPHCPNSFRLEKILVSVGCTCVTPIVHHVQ

IC50 [1] [µM] | Compound | IC50 [2] [µM] | IC50 ([2]; Homo sapiens, Keratinocyte) [µM]
0.46 | Cc1conc1C(=O)N[C@H](c1cn2ccc([C@H](NC(=O)CC3CC3(F)F)C3CC3)nc2n1)C1CCC(F)(F)CC1 (single isomer, unassigned) [Example 54, N—((S)-(7-((R)-Cyclopropyl(2-((R*)-2,2-difluorocyclopropyl)acetamido)methyl)imidazo[1,2-a]pyrimidin-2-yl)(4,4-difluorocyclohexyl)methyl)-4-methylisoxazole-3-carboxamide] | 4.5 | 
0.57 | O=C(CC1CC1(F)F)N[C@@H](c1ccn2cc([C@@H](NC(=O)c3ncnn3CC3CC3)C3CCC(F)(F)CC3)nc2n1)C1CC1 (single isomer, unassigned) [Example 55, N—((S)-(7-((R)-Cyclopropyl(2-((S*)-2,2-difluorocyclopropyl)acetamido)methyl)imidazo[1,2-a]pyrimidin-2-yl)(4,4-difluorocyclohexyl)methyl)-1-(cyclopropylmethyl)-1H-1,2,4-triazole-5-carboxamide] |  | 1.1
0.73 | O=C(CC1CC1(F)F)N[C@@H](c1ccn2cc([C@@H](NC(=O)c3ncnn3CC3CC3)C3CCC(F)(F)CC3)nc2n1)C1CC1 (single isomer, unassigned) [Example 56, N—((S)-(7-((R)-Cyclopropyl(2-((R*)-2,2-difluorocyclopropyl)acetamido)methyl)imidazo[1,2-a]pyrimidin-2-yl)(4,4-difluorocyclohexyl)methyl)-1-(cyclopropylmethyl)-1H-1,2,4-triazole-5-carboxamide] | 1.8 | 
0.22 | O=C(CC1CC1(F)F)N[C@@H](c1ccn2cc([C@@H](NC(=O)c3conc3C(F)(F)F)C3CCC(F)(F)CC3)nc2n1)C1CC1 (single isomer, unassigned) [Example 57, N—((S)-(7-((R)-Cyclopropyl(2-((S*)-2,2-difluorocyclopropyl)acetamido)methyl)imidazo[1,2-a]pyrimidin-2-yl)(4,4-difluorocyclohexyl)methyl)-3-(trifluoromethyl)isoxazole-4-carboxamide] | 0.93 | 
0.34 | O=C(CC1CC1(F)F)N[C@@H](c1ccn2cc([C@@H](NC(=O)c3conc3C(F)(F)F)C3CCC(F)(F)CC3)nc2n1)C1CC1 (single isomer, unassigned) [Example 58, N—((S)-(7-((R)-Cyclopropyl(2-((R*)-2,2-difluorocyclopropyl)acetamido)methyl)imidazo[1,2-a]pyrimidin-2-yl)(4,4-difluorocyclohexyl)methyl)-3-(trifluoromethyl)isoxazole-4-carboxamide] | 2.2 | 
6.8 | O=C(CCC(F)(F)F)NC(c1ccn2cc([C@@H](NC(=O)c3cnn(CCC(F)(F)F)c3)C3CCC(F)(F)CC3)nc2n1)C1CC1 (stereo in doubt) [Example 50, N—((S)-(7-((R*)-Cyclopropyl(4,4,4-trifluorobutanamido)methyl)imidazo[1,2-a]pyrimidin-2-yl)(4,4-difluorocyclohexyl)methyl)-1-(3,3,3-trifluoropropyl)-1H-pyrazole-4-carboxamide] |  | > 20
0.34 | CC(C)n1ncnc1C(=O)N[C@H](c1cn2ccc([C@H](NC(=O)CC3CC(F)(F)C3)C3CC3)nc2n1)C1CCC(F)(F)CC1 [Example 13, N—((S)-(7-((R)-Cyclopropyl(2-(3,3-difluorocyclobutyl)acetamido)methyl)imidazo[1,2-a]pyrimidin-2-yl)(4,4-difluorocyclohexyl)methyl)-1-isopropyl-1H-1,2,4-triazole-5-carboxamide] |  | 0.5
17 | CC(C)n1ncnc1C(=O)N[C@H](c1cn2ccc([C@@H](NC(=O)CC3CC(F)(F)C3)C3CC3)nc2n1)C1CCC(F)(F)CC1 [Example 14, N—((S)-(7-((S)-Cyclopropyl(2-(3,3-difluorocyclobutyl)acetamido)methyl)imidazo[1,2-a]pyrimidin-2-yl)(4,4-difluorocyclohexyl)methyl)-1-isopropyl-1H-1,2,4-triazole-5-carboxamide] |  | > 20
0.29 | O=C(CC1CC(F)(F)C1)N[C@@H](c1ccn2cc([C@@H](NC(=O)c3ncnn3CC3CC3)C3CCC(F)(F)CC3)nc2n1)C1CC1 [Example 15, N—((S)-(7-((R)-Cyclopropyl(2-(3,3-difluorocyclobutyl)acetamido)methyl)imidazo[1,2-a]pyrimidin-2-yl)(4,4-difluorocyclohexyl)methyl)-1-(cyclopropylmethyl)-1H-1,2,4-triazole-5-carboxamide] |  | 1.4
12 | O=C(CC1CC(F)(F)C1)N[C@H](c1ccn2cc([C@@H](NC(=O)c3ncnn3CC3CC3)C3CCC(F)(F)CC3)nc2n1)C1CC1 [Example 16, N—((S)-(7-((S)-Cyclopropyl(2-(3,3-difluorocyclobutyl)acetamido)methyl)imidazo[1,2-a]pyrimidin-2-yl)(4,4-difluorocyclohexyl)methyl)-1-(cyclopropylmethyl)-1H-1,2,4-triazole-5-carboxamide] |  | > 20
0.099 | Cc1nonc1C(=O)N[C@H](c1cn2ccc([C@H](NC(=O)CC3CC(F)(F)C3)C3CC3)nc2n1)C1CCC(F)(F)CC1 [Example 21, N—((S)-(7-((R)-Cyclopropyl(2-(3,3-difluorocyclobutyl)acetamido)methyl)imidazo[1,2-a]pyrimidin-2-yl)(4,4-difluorocyclohexyl)methyl)-4-methyl-1,2,5-oxadiazole-3-carboxamide] |  | 0.59
6.2 | Cc1nonc1C(=O)N[C@H](c1cn2ccc([C@@H](NC(=O)CC3CC(F)(F)C3)C3CC3)nc2n1)C1CCC(F)(F)CC1 [Example 22, N—((S)-(7-((S)-Cyclopropyl(2-(3,3-difluorocyclobutyl)acetamido)methyl)imidazo[1,2-a]pyrimidin-2-yl)(4,4-difluorocyclohexyl)methyl)-4-methyl-1,2,5-oxadiazole-3-carboxamide] |  | > 20
0.13 | Cc1nonc1C(=O)N[C@H](c1cn2ccc([C@H](NC(=O)CCC(F)(F)F)C3CC3)nc2n1)C1CCC(F)(F)CC1 [Example 23, N—((S)-(7-((R)-Cyclopropyl(4,4,4-trifluorobutanamido)methyl)imidazo[1,2-a]pyrimidin-2-yl)(4,4-difluorocyclohexyl)methyl)-4-methyl-1,2,5-oxadiazole-3-carboxamide] |  | 0.52
0.18 | O=C(CC1CC(F)(F)C1)N[C@@H](c1ccn2cc([C@@H](NC(=O)c3conc3C3CC3)C3CCC(F)(F)CC3)nc2n1)C1CC1 [Example 24, 3-Cyclopropyl-N—((S)-(7-((R)-cyclopropyl(2-(3,3-difluorocyclobutyl)acetamido)methyl)imidazo[1,2-a]pyrimidin-2-yl)(4,4-difluorocyclohexyl)methyl)isoxazole-4-carboxamide] |  | 0.18
0.31 | O=C(CC1CC(F)(F)C1)N[C@@H](c1ccn2cc([C@@H](NC(=O)c3ccnc(CC(F)(F)F)c3)C3CCC(F)(F)CC3)nc2n1)C1CC1 [Example 25, N—((S)-(7-((R)-Cyclopropyl(2-(3,3-difluorocyclobutyl)acetamido)methyl)imidazo[1,2-a]pyrimidin-2-yl)(4,4-difluorocyclohexyl)methyl)-2-(2,2,2-trifluoroethyl)isonicotinamide] |  | 0.21
